Laboratory results as given in US20150164899A1, “INHIBITION OF ADAPTOR ASSOCIATED KINASE 1 FOR THE TREATMENT OF PAIN” (priority 2012, published 2015).
Like-named read-outs stand apart in the source and are kept apart here.

Target: T1, AAK1 (full length human) in transfected HEK293F cells (Homo sapiens, UniProt Q2M2I8)
T1 construct: expressed in transfected cells; host or cells: HEK293F
Assay: HEK281 cell-based assay (phospho-mu2 Western blot)
Details: HEK281 cell-based assay, read-out: CBA IC50
Procedure: HEK293F cells were cultured in media containing DMEM (Gibco, cat. #11965), 10% FBS (SAFC Biosciences, cat. #12103C), 1×GPS (glutamine, penicillin and streptomycin). On day one, cells were plated on a 10 cm dish so that they are ˜80% confluent at time of transfection. Roughly 12 million cells were in a 10 cm dish at time of transfection. On day two, each dish was transfected with 48 ug DNA and 144 ul Lipofectamine 2000 (Invitrogen, cat.#11668-019). The DNA was comprised of a mixture (per 10 cm dish) containing 3 ug AAK1/HA/pIRES (full length human, NCBI accession no. NP_055726.2), 45 μg Flag/AP2MI/pcDNA (full length human), and 1.5 ml OPTI-MEM. The Lipofectamine 2000 is made up of a mixture (per 10 cm dish) containing 144 μl Lipofectamine 2000 and 1.5 ml OPTI-MEM. Each mixture was transferred to individual 15 ml tubes and incubated at RT for 5 minutes, and then the two mixes were combined and incubated at RT for 20 minutes. Growth media was then aspirated from each 10 cm plate and replaced with 10 ml of DMEM+10% FBS (no GPS). Finally, 3 ml DNA/Lipofectamine mix was added to each 10 cm dish and mix gently followed by incubate of plate overnight at 37° C. and 5% CO2.
On day three, compounds were diluted in 100% DMSO at 1000× final concentration, followed by 3-fold serial dilutions for a total of 5 concentrations tested. Four compounds were tested per 10 cm dish. One ul of each compound dilution was then pipetted into a deep-well, 96-well plate, followed by addition of 500 μl DMEM+0.5% FBS into each well for a 2× final concentration of each compound. Cells were resuspended in a 10 cm dish by simple pipetting (HEK293 cells come off the plate that easy at this point) and then transferred to a 50 ml conical tube and pelleted by centrifugation at 1000 rpm for 5 min. Cell pellets were then resuspended in 2.75 ml DMEM+0.5% FBS per 10 cm dish and 100 μl of cell suspension transferred into each well of 96-well TC plate. Finally, 100 μl of 2× compound diluted in DMEM+0.5% FBS was then added into wells containing cell suspension for a 1× final concentration. Plates were then incubated at 37° C. and 5% CO2 for 3 hours followed by transferring of cell suspensions from each well into 12-tube PCR strips. The PCR strips were spun in a tip rack at 1000 rpm for 5 minutes to pellet cells and media was then removed by pipetting without disturbing the cell pellet.
To prepare for Western Blot analysis, cell pellets were resuspend in 40 ul 1×LDS-PAGE sample buffer (Invitrogen, cat.# NP0008)+2× Halt phophatase and protease inhibitor cocktail (Thermo Scientific, cat.#1861284), followed by sonicating each with microtip sonicator set at 5 for 8-10 seconds. Five ul of 10× NuPage Sample Reducing Agent (with […]) was to each sample followed by heat denaturing at 70 C. for 10 min on PCR machine. A total of 10 μl per sample was loaded into each lane of a 4-20% Tris-Glycine Criterion 26-well gel (Biorad, cat.#345-0034) for the phospho-mu2 blot and 10 μl per lane in a 4-12% Bis-Tris (+MES buffer) NuPAGE 26-well gel (Invitrogen, cat.# WG1403BX10) for the mu2 blot. For controls, 2 ng of phospho-mu2 or 20 ng mu2/Flag proteins were loaded in the last well of each gel. After SDS-PAGE, samples on each gel were transferred to PVDF membrane using an iBlot and membranes were blocked for one hour in TBST+5% milk, followed by wash 3× for 5-10 min with TBST. Criterion gels were probed with rabbit anti-phospho-mu2 (1:5000; a rabbit polyclonal antibody produced by New England Peptide and affinity purified at Lexicon) in TBST+5% BSA, whereas, NuPAGE gels were probed with mouse anti-Flag (1:500; Sigma, cat.# F1804) in TBST+5% milk, and these primary antibodies were incubated overnight at 4° C. on a rocker.

[1] = pyrazolo[1,5-a]pyrimidine-based inhibitors
[2] = Table 1 imidazo[1,2-b]pyridazines

T1 sequence (Q2M2I8 1-863 isoform Q2M2I8-2): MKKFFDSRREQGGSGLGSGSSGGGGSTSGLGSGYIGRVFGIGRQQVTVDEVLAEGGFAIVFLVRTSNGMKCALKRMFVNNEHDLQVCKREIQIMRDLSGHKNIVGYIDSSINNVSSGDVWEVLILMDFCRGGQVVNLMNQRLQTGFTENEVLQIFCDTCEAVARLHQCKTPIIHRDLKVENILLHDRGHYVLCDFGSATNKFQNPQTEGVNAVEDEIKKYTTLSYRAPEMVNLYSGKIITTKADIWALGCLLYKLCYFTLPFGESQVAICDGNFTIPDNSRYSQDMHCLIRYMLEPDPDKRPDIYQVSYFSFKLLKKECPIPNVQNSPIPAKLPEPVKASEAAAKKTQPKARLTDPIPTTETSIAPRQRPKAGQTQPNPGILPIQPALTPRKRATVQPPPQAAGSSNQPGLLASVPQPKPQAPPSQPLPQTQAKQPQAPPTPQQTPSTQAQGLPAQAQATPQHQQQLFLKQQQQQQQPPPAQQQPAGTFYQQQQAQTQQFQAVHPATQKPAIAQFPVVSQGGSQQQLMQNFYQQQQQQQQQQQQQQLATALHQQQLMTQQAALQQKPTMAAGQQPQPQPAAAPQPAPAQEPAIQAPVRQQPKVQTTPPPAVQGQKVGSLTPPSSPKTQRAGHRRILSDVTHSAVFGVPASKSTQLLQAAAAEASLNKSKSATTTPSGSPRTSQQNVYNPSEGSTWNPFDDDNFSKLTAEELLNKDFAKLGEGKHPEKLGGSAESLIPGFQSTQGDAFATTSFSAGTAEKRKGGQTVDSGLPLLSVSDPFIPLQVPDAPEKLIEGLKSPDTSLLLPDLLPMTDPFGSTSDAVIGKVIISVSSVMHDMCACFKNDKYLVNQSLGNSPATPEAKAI

SMILES	IC50 [1] [nM]	IC50 [2] [nM]
COc1cnccc1-c1cnn2ccc(NCCOC3CCCC3)nc12	≤ 100	
COc1ccncc1-c1cnn2ccc(NCCc3ccccc3OC(F)(F)F)nc12	≤ 100	
CC(C)(C)OC(=O)N1CCC[C@H]1CNc1ccn2ncc(-c3ccccc3)c2n1	≤ 100	
CCCCNc1ccc2ncc(-c3ccc(CN)c(F)c3)n2n1		≤ 1000
CC(C)CNC(=O)c1cccc(-c2ccc3ncc(-c4ccc(CN)cc4)n3n2)c1		≤ 100
COc1cnccc1-c1cnn2ccc(N3CCN(C(=O)OC(C)C)CC3)nc12	≤ 100	
COc1cnccc1-c1cnn2ccc(NCCN(C)C(=O)OC(C)C)nc12	≤ 10	
CC(C)OC(=O)N1CCN(c2ccn3ncc(-c4cccnc4F)c3n2)CC1	≤ 100	
COc1nc(C)ccc1-c1cnn2ccc(N3CCN(C(=O)OC(C)C)CC3)nc12	≤ 100	
CN(CCNc1ccn2ncc(-c3ccc(C(N)=O)cc3)c2n1)C(=O)OC(C)(C)C	≤ 10	
COc1cnccc1-c1cnn2ccc(NCCc3ccccc3OC(F)(F)F)nc12	≤ 10	
Brc1cnn2ccc(NCCCOC3CCCC3)nc12	≤ 1000	
CCOC(=O)N(C)CCNc1ccn2ncc(-c3ccc(C(=O)NC)cc3)c2n1	≤ 100	
CC(C)OC(=O)N(C)CCNc1ccn2ncc(-c3ccc(C(N)=O)cc3)c2n1	≤ 10	
CCOc1ncccc1-c1cnn2ccc(N3CCN(C(=O)OC(C)C)CC3)nc12	≤ 100	
CC(C)NC(=O)N1CCN(c2ccc3ncc(-c4ccccc4)n3n2)CC1		≤ 100
CC(C)CNC(=O)c1cncc(-c2ccc3ncc(-c4ccc(CN)cc4)n3n2)c1		≤ 100
CCCCNc1ccn2ncc(-c3ccc(CN)cc3)c2n1	≤ 100	
CC(C)(C)OC(=O)N1CCC[C@H]1CNc1ccn2ncc(C(F)(F)F)c2n1	≤ 100	
COCCOC(=O)N1CCN(c2ccn3ncc(-c4cccnc4OC)c3n2)CC1	≤ 100	
CC(=O)c1cccc(-c2ccc3ncc(-c4ccc(CN)cc4)n3n2)c1		≤ 100
CNCCNC(=O)c1ccc(-c2cnn3ccc(NCCN(C)C(=O)OC(C)C)nc23)cc1	≤ 100	

SMILES	IC50 [1] [nM]	IC50 [2] [nM]
CC(C)(C)OC(=O)N1CCC[C@H]1CNc1ccn2ncc(-c3ccc(C(N)=O)cc3)c2n1	≤ 1000	
CCCCNc1ccn2ncc(-c3ccc(C(=O)NCCNC)cc3)c2n1	≤ 100	
CCc1ccccc1-c1cnn2ccc(NC[C@@H]3CCCN3C(=O)OC(C)(C)C)nc12	≤ 100	
NCc1ccc(-c2cnn3ccc(NCCCOC4CCCC4)nc23)cc1	≤ 100	
CC(C)(C)OCCNc1ccc2ncc(-c3ccc(C(N)=O)cc3)n2n1		≤ 100
CN(CCNc1ccc2ncc(-c3ccccc3)n2n1)C(=O)OC(C)(C)C		≤ 100
CNC(=O)c1ccc(-c2cnc3ccc(-c4cccc(C(=O)NCC(C)C)c4)nn23)cc1		≤ 100
CC(C)(C)OC(=O)N1CCC[C@H]1CCNc1ccc2ncc(-c3ccc(CN)cc3)n2n1		≤ 100
CC(C)(C)OCCNc1ccn2ncc(-c3ccc(CN)cc3)c2n1	≤ 100	
COCCNc1ccn2ncc(-c3ccccc3)c2n1	≤ 1000	
COCCNc1ccn2ncc(-c3ccc(C(=O)NCCNC(=O)OC(C)(C)C)cc3)c2n1	≤ 1000	
CNC(=O)c1ccc(-c2cnn3ccc(NCCN(C)C(=O)OCC(C)C)nc23)cc1	≤ 1000	
NCc1ccc(-c2cnn3ccc(NCCc4ccccc4OC(F)(F)F)nc23)cc1	≤ 10	
CC(C)CCC(=O)c1cccc(-c2ccc3ncc(-c4ccc(CN)cc4)n3n2)c1		≤ 100
COc1cnccc1-c1cnn2ccc(NCCOC(C)(C)C)nc12	≤ 100	
CNC(=O)c1ccc(-c2cnn3ccc(NCCN(C)C(=O)OC(C)C)nc23)cc1	≤ 10	
CN(C)CCOCc1ccc(-c2cnc3ccc(NCCC(C)(C)C)nn23)cc1		≤ 100
COc1ncc(F)cc1-c1cnn2ccc(N3CCN(C(=O)OC(C)C)CC3)nc12	≤ 100	
CCCCNc1ccc2ncc(C(=O)Nc3ccc(C(=O)NCCN(C)C)cc3)n2n1		≤ 100
CC(C)(C)COCCNc1ccn2ncc(-c3ccc(CN)cc3)c2n1	≤ 100	
NCc1ccc(-c2cnn3ccc(NCCOC4CCCC4)nc23)cc1	≤ 100	
COCCNc1ccn2ncc(-c3ccc(C(=O)NCCN)cc3)c2n1	≤ 1000	

SMILES	IC50 [1] [nM]	IC50 [2] [nM]
CC(C)OC(=O)N1CCC[C@H]1CNc1ccc2ncc(Cl)n2n1		≤ 100
COc1cnccc1-c1cnc2ccc(-c3cccc(C(=O)NCC(C)C)c3)nn12		≤ 100
COc1cccc(CCNc2ccc3ncc(-c4ccc(C(N)=O)cc4)n3n2)c1		≤ 100
CC(C)OC(=O)N(C)CCNc1ccn2ncc(-c3ccc(CN)cc3)c2n1	≤ 100	
COc1ccccc1-c1cnn2ccc(NC[C@@H]3CCCN3C(=O)NC(C)(C)C)nc12	≤ 100	
COc1ccncc1-c1cnn2ccc(NCCN(C)C(=O)OC(C)C)nc12	≤ 100	
CCCCSc1ccc2ncc(-c3ccc(CN)cc3)n2n1		≤ 1000
CC(C)OC(=O)N(C)CCNc1ccn2ncc(-c3ccc(C4CCCN4)cc3)c2n1 (stereo not shown)	≤ 10	
CNC(=O)c1ccc(-c2cnn3ccc(NCCN(C)C(=O)OC(C)(C)C)nc23)cc1	≤ 10	
COc1cnccc1-c1cnc2ccc(-c3cccc(C(=O)CCC(C)C)c3)nn12		≤ 100
COc1cnccc1-c1cnn2ccc(NCCCOC3CCCC3)nc12	≤ 100	
COCCNc1ccn2ncc(-c3ccc(CN)cc3)c2n1	≤ 100	
CC(C)(C)OC(=O)N1CCC[C@H]1CNc1ccn2ncc(I)c2n1	≤ 100	
CC(C)OC(=O)N1CCN(c2ccn3ncc(-c4cccn(C)c4=O)c3n2)CC1	≤ 100	
CCCCNc1ccn2ncc(-c3ccc(C(=O)NCCN)cc3)c2n1	≤ 100	
CC(C)(C)CCNc1ccn2ncc(-c3ccc(C(=O)NCCN)cc3)c2n1	≤ 1000	
COc1ncccc1-c1cnn2ccc(N3CCN(C(=O)CC(C)C)CC3)nc12	≤ 100	
COc1cnccc1-c1cnn2ccc(NCCN(C)C(=O)OC(C)(C)C)nc12	≤ 10	
NCc1ccc(-c2cnc3ccc(NCC4CCCCC4)nn23)cc1		≤ 1000
CN(CCNc1ccc2ncc(-c3ccc(C#N)cc3)n2n1)C(=O)OC(C)(C)C		≤ 100
